Experimental data taken from ChEMBL document CHEMBL1134267 (Bioorg Med Chem Lett, 2001).

Tests used:
[1] = molecular target: Neuronal acetylcholine receptor alpha4/beta2 (Rattus norvegicus); experiment: Affinity for Nicotinic acetylcholine receptor alpha4-beta2 tested by analogue-induced inhibition of [3H]NIC binding to rat striatal membranes
[2] = molecular target: Neuronal acetylcholine receptor subunit alpha-7 (Rattus norvegicus, UniProt Q05941); experiment: Affinity for alpha-7 neuronal nicotinic acetylcholine receptor subtype determined by inhibition of [3H]-MLA binding to rat brain membranes; type: cell membranes, Membrane
Neuronal acetylcholine receptor subunit alpha-7, sequence (Q05941 whole entry): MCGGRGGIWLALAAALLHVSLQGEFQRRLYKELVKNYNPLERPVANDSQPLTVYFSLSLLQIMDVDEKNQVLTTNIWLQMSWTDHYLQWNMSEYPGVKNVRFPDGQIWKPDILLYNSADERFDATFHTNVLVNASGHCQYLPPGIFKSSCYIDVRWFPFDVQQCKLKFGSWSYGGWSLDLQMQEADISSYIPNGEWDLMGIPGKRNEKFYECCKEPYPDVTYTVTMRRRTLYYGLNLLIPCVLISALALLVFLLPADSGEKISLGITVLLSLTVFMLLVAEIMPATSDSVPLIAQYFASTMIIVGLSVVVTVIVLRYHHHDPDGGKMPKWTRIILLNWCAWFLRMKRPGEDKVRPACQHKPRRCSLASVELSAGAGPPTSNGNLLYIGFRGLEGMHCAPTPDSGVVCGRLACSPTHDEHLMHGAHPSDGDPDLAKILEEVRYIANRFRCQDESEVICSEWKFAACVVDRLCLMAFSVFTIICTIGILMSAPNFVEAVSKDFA

**Q.** How did the Ki [1] turn out when `CN1CC[C@@H]2CCc3cc[n+]([BH2-]C#N)cc3[C@@H]21` was run?
**A.** 2.4 µM

**Q.** What about the Ki [2] of the same molecule?
**A.** 0.6 µM

**Q.** What does the source list for `c1cnc2c(c1)[C@H]1NCC[C@H]1CC2`?
**A.** Ki [1]: 10.5 µM; Ki [2]: > 100 µM

**Q.** For `c1cc2c(cn1)[C@@H]1NCC[C@@H]1CC2`, which Ki [2] is on record?
**A.** 20.2 µM

**Q.** For `CN1CC[C@H]2CCc3c(ccc[n+]3[BH2-]C#N)[C@H]21`, which Ki [2] is on record?
**A.** > 100 µM

**Q.** How did the Ki [1] turn out when `CN1CC[C@H]2CCc3ncccc3[C@H]21` was run?
**A.** 12.2 µM

**Q.** What about the Ki [2] of the same molecule?
**A.** > 100 µM

**Q.** With `CN1CCC[C@H]1c1ccc[n+]([BH2-]C#N)c1` as the molecule, how does the Ki [1] read?
**A.** 15.2 µM

**Q.** And the Ki [2]?
**A.** 0.041 µM

**Q.** `CN1CC[C@@H]2CCc3ccncc3[C@@H]21` was tested. Which Ki [1] did it give?
**A.** 0.4 µM

**Q.** What about the Ki [2] of the same molecule?
**A.** 0.59 µM

**Q.** How did the Ki [2] turn out when `c1cncc([C@@H]2CCCN2)c1` [NORNICOTINE] was run?
**A.** 1.34 µM
